Experiments:
PKD1 [1] = target: T1, PKD1 (Homo sapiens, UniProt Q15139); conditions: PKD; cited from earlier work
T1 sequence (Q15139 1-912): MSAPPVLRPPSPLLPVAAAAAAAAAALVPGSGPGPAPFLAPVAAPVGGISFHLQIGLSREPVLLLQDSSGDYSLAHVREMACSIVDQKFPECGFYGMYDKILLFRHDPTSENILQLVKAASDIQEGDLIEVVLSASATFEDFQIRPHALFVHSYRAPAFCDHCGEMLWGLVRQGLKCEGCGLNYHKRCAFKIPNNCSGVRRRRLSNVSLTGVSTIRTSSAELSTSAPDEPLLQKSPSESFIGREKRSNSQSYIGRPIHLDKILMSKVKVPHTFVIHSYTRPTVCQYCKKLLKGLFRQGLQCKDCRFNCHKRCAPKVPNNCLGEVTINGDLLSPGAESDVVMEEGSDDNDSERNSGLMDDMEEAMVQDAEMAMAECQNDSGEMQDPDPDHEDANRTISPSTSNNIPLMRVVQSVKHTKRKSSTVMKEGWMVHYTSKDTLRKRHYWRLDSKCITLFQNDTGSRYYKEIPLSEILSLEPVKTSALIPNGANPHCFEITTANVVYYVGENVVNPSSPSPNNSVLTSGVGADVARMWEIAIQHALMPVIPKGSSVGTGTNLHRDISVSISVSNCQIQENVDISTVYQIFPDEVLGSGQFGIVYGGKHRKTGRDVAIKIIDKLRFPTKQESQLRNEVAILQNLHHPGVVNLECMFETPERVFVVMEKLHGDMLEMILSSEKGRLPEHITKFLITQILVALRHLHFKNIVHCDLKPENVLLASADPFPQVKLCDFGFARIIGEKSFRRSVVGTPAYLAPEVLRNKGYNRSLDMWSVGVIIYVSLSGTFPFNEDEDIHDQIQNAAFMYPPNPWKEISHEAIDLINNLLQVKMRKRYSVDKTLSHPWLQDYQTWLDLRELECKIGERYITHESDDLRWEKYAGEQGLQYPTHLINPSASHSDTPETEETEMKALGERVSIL

PKCδ = PKCδ (Homo sapiens, UniProt Q05655); test: Selectivity assay against PKCδ; type: biochemical; conditions: selectivity counterscreen
PKCα = PKCα (Homo sapiens, UniProt P17252); test: Selectivity assay against PKCα; type: biochemical; conditions: selectivity counterscreen
PKCβI = PKCβI (Homo sapiens, UniProt P05771); test: Selectivity assay against PKCβI; type: biochemical; conditions: selectivity counterscreen
[2] = target: T2, PKD1 autophosphorylation at S916 in LNCaP prostate cancer cells (Homo sapiens, UniProt Q15139); test: Cellular PKD1 autophosphorylation at S916; type: cell-based; conditions: vs CID755673
T2 sequence (Q15139 1-912): T1 sequence (Q15139 1-912)

PKD1 [3] = target: T1, PKD1; test: PKD1 radiometric kinase activity assay; type: biochemical; conditions: ratio of in vitro IC50 vs CID755673
[4] = in vivo studies; cited from earlier work

PKCδ, sequence (Q05655 whole entry): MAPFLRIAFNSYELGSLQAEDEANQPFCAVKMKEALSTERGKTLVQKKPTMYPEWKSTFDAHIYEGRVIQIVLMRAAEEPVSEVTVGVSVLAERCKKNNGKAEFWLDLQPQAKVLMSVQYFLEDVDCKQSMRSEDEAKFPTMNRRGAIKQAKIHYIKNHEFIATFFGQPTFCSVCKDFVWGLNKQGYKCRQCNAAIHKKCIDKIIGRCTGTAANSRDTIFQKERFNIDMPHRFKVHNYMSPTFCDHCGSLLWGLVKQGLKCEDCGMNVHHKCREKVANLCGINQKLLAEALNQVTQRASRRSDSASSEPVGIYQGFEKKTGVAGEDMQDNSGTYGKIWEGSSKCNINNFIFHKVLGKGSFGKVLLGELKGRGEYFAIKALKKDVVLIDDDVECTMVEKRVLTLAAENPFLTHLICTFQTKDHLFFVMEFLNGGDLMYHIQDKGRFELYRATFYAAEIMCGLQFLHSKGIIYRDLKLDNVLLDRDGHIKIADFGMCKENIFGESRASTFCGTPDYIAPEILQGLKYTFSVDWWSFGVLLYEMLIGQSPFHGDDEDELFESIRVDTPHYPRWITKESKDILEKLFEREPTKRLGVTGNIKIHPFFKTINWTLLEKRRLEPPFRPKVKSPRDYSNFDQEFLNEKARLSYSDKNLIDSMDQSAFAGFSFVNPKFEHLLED
PKCβI, sequence (P05771 whole entry): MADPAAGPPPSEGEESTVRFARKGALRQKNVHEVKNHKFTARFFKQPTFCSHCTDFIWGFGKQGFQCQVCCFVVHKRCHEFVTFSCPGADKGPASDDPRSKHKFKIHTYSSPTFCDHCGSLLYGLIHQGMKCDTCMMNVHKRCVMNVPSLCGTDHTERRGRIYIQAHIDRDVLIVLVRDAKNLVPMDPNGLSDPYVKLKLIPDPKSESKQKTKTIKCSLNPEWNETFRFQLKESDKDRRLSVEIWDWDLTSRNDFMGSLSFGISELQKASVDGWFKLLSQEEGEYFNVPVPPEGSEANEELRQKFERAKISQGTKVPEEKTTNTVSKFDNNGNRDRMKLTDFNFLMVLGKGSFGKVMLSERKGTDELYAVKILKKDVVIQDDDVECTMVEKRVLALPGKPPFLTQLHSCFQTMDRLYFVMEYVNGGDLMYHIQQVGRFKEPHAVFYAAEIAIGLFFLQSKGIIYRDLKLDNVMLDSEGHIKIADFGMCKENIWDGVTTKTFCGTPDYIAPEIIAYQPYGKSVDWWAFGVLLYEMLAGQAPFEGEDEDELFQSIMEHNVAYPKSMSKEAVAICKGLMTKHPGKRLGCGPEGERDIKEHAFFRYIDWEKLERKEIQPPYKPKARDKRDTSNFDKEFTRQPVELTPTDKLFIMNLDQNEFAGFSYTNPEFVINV

| Compound | mode of inhibition (ATP competition) (PKD1 [1]) | activity against PKCδ (PKCδ) | activity against PKCα (PKCα) | activity against PKCβI (PKCβI) | improvement (lowering) of cellular IC50 compared to CID755673 [2] [fold] | improvement in PKD1 in vitro potency over CID755673 (PKD1 [3]) [fold] | plasma half-life [4] |
| --- | --- | --- | --- | --- | --- | --- | --- |
| O=C1NCCCc2c1oc1ccc(O)cc21 [CID755673] | not an ATP-competitive inhibitor |  |  |  |  |  |  |
| O=C1NCCCc2c1[nH]c1ccc(O)cc21 [kb-NB123-57] |  | did not detect significant activities | did not detect significant activities | did not detect significant activities |  |  |  |
| O=C1NCCSc2c1sc1ccc(O)cc21 [kb-NB142-70] |  |  |  |  | 5 | ~7 | short plasma half-life |
| COc1ncc2sc3c(c2n1)SCCNC3=O [kmg-NB4-23] |  | did not detect significant activities | did not detect significant activities | did not detect significant activities |  |  |  |
| [N-]=[N+]=Nc1ccc2sc3c(c2c1)SCCNC3=O [mcf292-08] |  | did not detect significant activities | did not detect significant activities | did not detect significant activities |  |  |  |

From PMC3100199 (ACS medicinal chemistry letters, 2011)
